In patent publication US10710980B2, “Aminopyridine derivatives and their use as selective ALK-2 inhibitors” (priority 2016, dated 2020):

Columns and labels:
[1] = target: ALK1 (aa166-493) (Homo sapiens (Human), UniProt P37023); assay: Caliper biochemical peptide phosphorylation assay, ALK1; settings: 15 μm ATP, 60 min at 30° C.; read-out: ALK1 EPK (IC50)
[2] = test system: BMP response element (BRE) luciferase reporter in HuH7 cells, BMP6 stimulated; assay: BMP signaling reporter gene assay; format: cell-based; settings: Homo sapiens, Huh-7; HuH7 BRE-luciferase, BMP6 100 ng/ml, 5 hours; read-out: MSD BMP RGA IC50
[3] = target: T1, wild-type ALK2 (aa172-499) (Homo sapiens (Human), UniProt Q04771); assay: ADPGlo biochemical autophosphorylation assay, ALK2; settings: 15 μm ATP, 60 min at 32° C.
T1 sequence (Q04771 172-499): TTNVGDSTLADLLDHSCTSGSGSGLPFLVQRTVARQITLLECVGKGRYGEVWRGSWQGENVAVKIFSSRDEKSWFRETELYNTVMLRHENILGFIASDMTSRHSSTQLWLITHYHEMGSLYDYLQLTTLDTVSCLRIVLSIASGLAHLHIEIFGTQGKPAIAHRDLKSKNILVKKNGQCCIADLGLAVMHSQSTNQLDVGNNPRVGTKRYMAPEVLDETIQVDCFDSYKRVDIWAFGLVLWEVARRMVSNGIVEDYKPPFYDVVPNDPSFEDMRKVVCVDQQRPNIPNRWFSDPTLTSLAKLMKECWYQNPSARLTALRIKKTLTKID

[4] = target: ALK6 (aa168-495) (Homo sapiens (Human), UniProt O00238); assay: Caliper biochemical peptide phosphorylation assay, ALK6; settings: 15 μm ATP, 60 min at 30° C.; read-out: ALK6 EPK (IC50)
ALK6 (aa168-495), sequence (O00238 168-495): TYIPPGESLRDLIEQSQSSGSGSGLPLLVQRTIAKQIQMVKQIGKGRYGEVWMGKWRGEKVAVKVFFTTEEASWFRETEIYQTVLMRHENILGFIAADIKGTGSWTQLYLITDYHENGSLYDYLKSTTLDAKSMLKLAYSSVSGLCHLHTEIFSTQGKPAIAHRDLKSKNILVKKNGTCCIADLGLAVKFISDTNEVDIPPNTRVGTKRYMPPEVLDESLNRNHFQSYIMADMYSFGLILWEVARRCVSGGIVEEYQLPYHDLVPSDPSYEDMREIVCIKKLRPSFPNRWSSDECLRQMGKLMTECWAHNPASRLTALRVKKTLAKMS

[5] = target: T1, wild-type ALK2 (aa172-499); assay: Caliper biochemical peptide phosphorylation assay, ALK2; settings: 15 μm ATP, 60 min at 30° C.; read-out: ALK2 EPK (IC50)

ALK1 (aa166-493), sequence (P37023 166-493): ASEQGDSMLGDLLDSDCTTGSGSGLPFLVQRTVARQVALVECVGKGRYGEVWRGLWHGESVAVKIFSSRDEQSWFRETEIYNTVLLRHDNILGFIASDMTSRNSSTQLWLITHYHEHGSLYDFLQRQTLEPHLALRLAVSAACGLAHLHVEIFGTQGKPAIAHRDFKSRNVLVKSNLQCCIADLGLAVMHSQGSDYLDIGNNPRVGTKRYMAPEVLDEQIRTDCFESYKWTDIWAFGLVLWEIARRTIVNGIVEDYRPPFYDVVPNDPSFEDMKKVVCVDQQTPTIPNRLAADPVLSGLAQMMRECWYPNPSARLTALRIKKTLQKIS

Structure (SMILES)	IC50 [1]	IC50 [2]	IC50 [3]	IC50 [4]	IC50 [5]
CC(C)N1CCC(c2ccc(-c3cnc(N)c(C(=O)N[C@H]4CC[C@H](O)CC4)c3)cc2)C1 (stereo partly shown) [Example 12, 2-amino-N-((1r,4r)-4-hydroxycyclohexyl)-5-(4-(1-isopropylpyrrolidin-3-yl)phenyl)nicotinamide]	160 nM				
C[C@]1(O)CC[C@H](NC(=O)c2cc(-c3ccc([C@@]45C[C@@H]4CN(C4CCOCC4)C5)cc3)cnc2N)CC1 [Example 14, 2-amino-N-((1r,4R)-4-hydroxy-4-methylcyclohexyl)-5-(4-((1R,5S)-3-(tetrahydro-2H-pyran-4-yl)-3-azabicyclo[3.1.0]hexan-1-yl)phenyl)nicotinamide]		205 nM			
Nc1ncc(-c2ccc(C3CCNC3)cc2)cc1C(=O)N[C@H]1CC[C@H](O)CC1 (stereo partly shown) [Example 18, 2-amino-N-((1r,4r)-4-hydroxycyclohexyl)-5-(4-(pyrrolidin-3-yl)phenyl)nicotinamide]	200 nM				
Nc1ncc(-c2ccc([C@@]34C[C@@H]3CN(C3CCOCC3)C4)cc2)cc1C(=O)N[C@H]1CC[C@H](O)CC1 [Example 19, 2-amino-N-((1r,4R)-4-hydroxycyclohexyl)-5-(4-((1R,5S)-3-(tetrahydro-2H-pyran-4-yl)-3-azabicyclo[3.1.0]hexan-1-yl)phenyl)nicotinamide]	105 nM	21 nM	12 nM	2250 nM	
Nc1ncc(-c2ccc([C@@]34C[C@@H]3CN(C3CCOCC3)C4)cc2)cc1C(=O)N[C@H]1CC[C@@H](O)CC1 [Example 22, 2-amino-N-((1s,4S)-4-hydroxycyclohexyl)-5-(4-((1R,5S)-3-(tetrahydro-2H-pyran-4-yl)-3-azabicyclo[3.1.0]hexan-1-yl)phenyl)nicotinamide]	250 nM	41 nM	9 nM	3200 nM	16 nM
Nc1ncc(-c2ccc([C@@]34C[C@@H]3CN(C3CCC(F)(F)CC3)C4)cc2)cc1C(=O)N[C@H]1CC[C@H](O)CC1 [Example 25, 2-amino-5-(4-((1R,5S)-3-(4,4-difluorocyclohexyl)-3-azabicyclo[3.1.0]hexan-1-yl)phenyl)-N-((1r,4R)-4-hydroxycyclohexyl)nicotinamide]		35 nM	9 nM	3000 nM	18 nM
Nc1ncc(-c2ccc([C@]34C[C@H]3CN(C3CCC(F)(F)CC3)C4)cc2)cc1C(=O)N[C@H]1CC[C@H](O)CC1 [Example 27, 2-amino-5-(4-((1S,5R)-3-(4,4-difluorocyclohexyl)-3-azabicyclo[3.1.0]hexan-1-yl)phenyl)-N-((1r,4S)-4-hydroxycyclohexyl)nicotinamide]	135 nM	59 nM	10 nM	1600 nM	18 nM
Nc1ncc(-c2ccc([C@@]34C[C@@H]3CN(CCF)C4)cc2)cc1C(=O)NC12CCC(O)(CC1)CC2 [Example 57, 2-amino-5-(4-((1R,5S)-3-(2-fluoroethyl)-3-azabicyclo[3.1.0]hexan-1-yl)phenyl)-N-(4-hydroxybicyclo[2.2.2]octan-1-yl)nicotinamide]		144 nM			
C[C@]1(O)CC[C@H](NC(=O)c2cc(-c3ccc([C@]45C[C@H]4CN(C4CCOCC4)C5)cc3)cnc2N)CC1 [Example 62]		134 nM			
C[C@@H]1CCCN1Cc1ccc(-c2cnc(N)c(C(=O)N[C@H]3CC[C@](C)(O)CC3)c2)cc1 [Example 72, 2-amino-N-((1r,4R)-4-hydroxy-4-methylcyclohexyl)-5-(4-(((R)-2-methylpyrrolidin-1-yl)methyl)phenyl)nicotinamide]	2950 nM				
Nc1ncc(-c2ccc([C@]34C[C@H]3CN(CCF)C4)cc2)cc1C(=O)NC12CCC(O)(CC1)CC2 [Example 73, 2-amino-5-(4-((1S,5R)-3-(2-fluoroethyl)-3-azabicyclo[3.1.0]hexan-1-yl)phenyl)-N-(4-hydroxybicyclo[2.2.2]octan-1-yl)nicotinamide]		130 nM			
